According to patent publication US10682397B2, “Methods of treating fragile X syndrome and related disorders” (Massachusetts Institute of Technology, priority 2015, dated 2020):
“Also recorded” adds a separate entry of the source.

Legend:
ERK1/2 = experiment: Immunoblotting of ERK1/2 phosphorylation in hippocampal slices; format: cell-based, mice; conditions: CDPPB 10 μM, 30 min
Experimental: (§1) Hippocampal slices were prepared and recovered as described in metabolic labeling experiments. Sets of slices were stimulated with CDPPB (10 μM) for 30 minutes and then flash frozen in liquid nitrogen immediately after stimulation, prior to processing. Yoked unstimulated slices were also processed to assess basal signaling levels Immunoblotting was performed according to established methods using primary antibodies to p-ERK1/2 (Thr202/Tyr204) (Cell Signaling Technology), ERK1/2 (Cell Signaling Technology), p-Akt (Ser473) (Cell Signaling Technology), Akt (Cell Signaling Technology), […] (Cell Signaling Technology) and S6 (Cell Signaling Technology). Protein levels were measured by densitometry (Quantity One), and quantified as the densitometric signal of phospho-protein divided by the total protein signal in the same lane.

hippocampal slices [1] = experiment: Metabolic labeling of new protein synthesis (35S-Met/Cys incorporation) in hippocampal slices; format: cell-based, mice; conditions: CDPPB 10 μM, 30 min
Experimental: Metabolic labeling of new protein synthesis was performed as previously described (Osterweil et al., J. Neurosci. 46, 15616-27 (2010)). Male P28-P32 littermate mice were anesthetized with isoflurane and the hippocampus was rapidly dissected into ice-cold aCSF (in mM: 124 NaCl, 3 KCl, 1.25 NaH2PO4, 26 NaHCO3, 10 dextrose, 1 MgCl2, 2 CaCl2, saturated with 95% O2 and 5% CO2). Hippocampal slices (500 μm) were prepared using a Stoelting Tissue Slicer and transferred into 32.5° C. aCSF (saturated with 95% O2 and 5% CO2) within 5 mM. Slices were incubated in aCSF undisturbed for 3.5-4 h to allow for recovery of basal protein synthesis. Actinomycin D (25 μM) and vehicle or CDPPB (10 μM) was then added to the recovery chamber for 30 mM to inhibit transcription and stimulate mGlu receptors, respectively after which slices were transferred to fresh aCSF containing ˜10 mCi/ml [^35S] Met/Cys (Perkin Elmer) for an additional 30 mM Slices were then homogenized, and labeled proteins isolated by TCA precipitation. Samples were read with a scintillation counter and subjected to a protein concentration assay (Bio-Rad). Data was analyzed as counts per minute per microgram of protein, normalized to the [^35S] Met/Cys aCSF used for incubation and the average incorporation of all samples analyzed and then normalized to percent wild-type for each experiment. Statistical significance was determined using unpaired t-tests.
To determine the role of β-arrestin2 in mGlu5-mediated protein synthesis, hippocampal slices from male Arrb2^+/− and wild-type (WT) littermates were stimulated with a selective […] positive modulator of mGlu5, 3-Cyano-N-(1,3-diphenyl-1H-pyrazol-5-yl) benzamide (CDPPB, 10 μM, 30 minutes), and the incorporation of ^35S-methionine/cysteine into new protein was measured. mGlu5 activation caused a parallel increase in protein synthesis (FIG. 1A) and ERK1/2 phosphorylation (FIG. 1B) in WT slices, which were both absent in slices from Arrb2^+/− mice. […]

ribosomal protein S6 = experiment: Immunoblotting of ribosomal protein S6 phosphorylation in hippocampal slices; format: cell-based, mice; conditions: 10 μM CDPPB
Experimental: as §1

AKT = experiment: Immunoblotting of AKT phosphorylation in hippocampal slices; format: cell-based, mice; conditions: 10 μM CDPPB
Experimental: as §1

hippocampal neurons = experiment: Fluorescence-based calcium imaging in brain slices (Fluo-4 AM); format: cell-based, mice; conditions: DHPG 25 μM
Experimental: Hippocampal slices were prepared as described for electrophysiology experiments and recovered in aCSF for 2 hours at 32° C. Slices were then moved to a small recovery chamber and incubated in oxygenated aCSF containing 20 μM fluo-4-acetoxymethyl ester (fluo-4 AM; ThermoFisher) and 0.1% Pluronic F-127 (ThermoFisher) for 1 hour in the dark. After 1 hour, slices were then washed with oxygenated aCSF containing 1 μM tetrodotoxin (Abcam) and 50 μM D-AP5 (Tocris) for 20 minutes in a recording chamber. A low-powered (4×) objective was used to identify the brain region of interest. CA1 pyramidal neurons were visualized using a 40× water immersion objective and a Nikon Eclipse E600FN microscope.
Changes in Ca^2+ fluorescence were monitored in the presence of 1 μM tetrodotoxin and 50 μM D-AP5 using a Hamamatsu ORCA-100 camera, HClmage software (Hamamatsu), and a mercury arc-lamp and power supply (Nikon). After a 10 second baseline, 25 μM (S)-3,5-DHPG was bath applied. […] Data were analyzed using Image J software. Increases in Ca^2+ mobilization in hippocampal neurons were reported as changes in relative fluorescence divided by the baseline fluorescence (ΔF/F).
To assay the integrity of Gq signaling, calcium mobilization in hippocampal slices from WT and Arrb2^+/− animals was measured using the cell-permeable calcium fluorescent dye Fluo4-AM. […]

mice = experiment: MK801-induced hyperlocomotion in the open field; format: in vivo; conditions: for MK801-induced hyperlocomotion: MTEP 10 mg/kg i.p. pre-treatment, MK801 0.3 mg/kg
Experimental: To determine the effects of genotype on MK801-induced hyperlocomotion, mice were habituated in the open field (40 cm×40 cm×40 cm box) for 60 min, followed by the administration of vehicle or MK801 and locomotor activity was recorded for another 60 mM. To determine the effects of MTEP by genotype on MK801-induced hyperlocomotion, mice were habituated in the open field for 30 min, followed by the intraperitoneal (i.p.) administration of MTEP (10 mg/kg at a dosing volume of 10 ml/kg). After an additional 30 mM, MK801 (0.3 mg/kg at a dosing volume of 10 ml/kg) was administered i.p. and locomotor activity was recorded for another 60 mM. The time course of drug-induced changes in ambulation was expressed as cm traveled/5 mM over the 120-min session. Sessions were recorded using Plexon's CINEPLEX® Studio and analyzed using Plexon's CINEPLEX® Editor and code written in MATLAB. MK801-induced locomotor activity was scored and analyzed using the average of the final 5 minutes (minute 115-120) per cohort.

hippocampal slices [2] = experiment: mGlu-LTD (DHPG-induced) field recordings in hippocampal slices; format: cell-based, mice
Experimental: Slices were prepared as described previously (Dolen et al., Neuron 6, 955-56 (2007)). Acute hippocampal slices (350 μm) were prepared from P28-35 animals in ice-cold dissection buffer containing (in mM): NaCl 87, Sucrose 75, KCl2.5, NaH2PO4 1.25, NaHCO3 25, CaCl2 0.5, MgSO4 7, Ascorbic acid 1.3, and D-glucose 10 (saturated with 95% O2/5% CO2). Immediately following slicing the CA3 region was removed. Slices were recovered in artificial cerebrospinal fluid (aCSF) containing (in mM): NaCl 124, KCl5, NaH2PO4 1.23, NaHCO3 26, CaCl2 2, MgCl2 1, and D-glucose 10 (saturated with 95% O2/5% CO2) at 32.5° C. for ≥3 hours prior to recording.
Field recordings were performed in a submersion chamber, perfused with aCSF (2-3 ml/min) at 30° C. Field EPSPs (fEPSPs) were recorded in CA1 stratum radiatum with extracellular glass electrodes (1-2 MΩ) filled with aCSF. Baseline responses were evoked by stimulation of the Schaffer collaterals at 0.033 Hz with a 2-contact cluster electrode (FHC) using a 0.2 ms stimulus yielding 40-60% of the maximal response. fEPSP recordings were filtered at 0.1 Hz-1 kHz, digitized at 10 kHz, and analyzed using pClamp9 (Axon Instruments). […]
Paired pulse facilitation was induced by applying two pulses at different interstimulus intervals. Facilitation was measured by the ratio of the fEPSP slope of stimulus 2 to stimulus 1. […]

N#Cc1cccc(C(=O)Nc2cc(-c3ccccc3)nn2-c2ccccc2)c1 [CDPPB, 3-Cyano-N-(1,3-diphenyl-1H-pyrazol-5-yl) benzamide]
ERK1/2 phosphorylation compared with vehicle (ERK1/2; Arrb1+/− slices): elevated | ERK1/2 phosphorylation compared with vehicle (ERK1/2; Arrb2+/− slices): no change | ERK1/2 phosphorylation compared with vehicle (ERK1/2; WT slices): elevated | Protein synthesis compared with vehicle (hippocampal slices [1]; Arrb1+/− slices): similarly elevated | Protein synthesis compared with vehicle (hippocampal slices [1]; Arrb2+/− slices): no effect | Protein synthesis compared with vehicle (hippocampal slices [1]; WT slices): similarly elevated | S6 phosphorylation compared with vehicle (ribosomal protein S6; WT and Arrb1+/− slices): Neither WT nor Arrb1^+/− slices stimulated with CDPPB show elevated S6 phosphorylation | S6 phosphorylation compared with vehicle (ribosomal protein S6; WT and Arrb2+/− slices): Neither WT nor Arrb2^+/− slices stimulated with CDPPB show elevated S6 phosphorylation | AKT phosphorylation compared with vehicle (AKT; WT and Arrb1+/− slices): Neither WT nor Arrb1^+/− slices stimulated with CDPPB show elevated AKT phosphorylation | AKT phosphorylation compared with vehicle (AKT; WT and Arrb2+/− slices): Neither WT nor Arrb2^+/− slices stimulated with CDPPB show elevated AKT phosphorylation

N[C@H](C(=O)O)c1cc(O)cc(O)c1 [DHPG, (S)-3,5-Dihydroxyphenylglycine]
Ca2+-mediated fluorescence (hippocampal neurons; 1 min, WT and Arrb2+/− slices (not significantly different)): rapid increase

C[C@]12N[C@H](Cc3ccccc31)c1ccccc12 [MK801]
Locomotor activity compared to vehicle (mice; MK801 0.3 mg/kg i.p., 60 minutes post-treatment, WT and Arrb2+/− mice (comparable)): hyperlocomotion

Cc1nc(C#Cc2cccnc2)cs1 [MTEP, 3-[(2-Methyl-1,3-thiazol-4-yl)ethynyl]-pyridine]
MK801-induced hyperlocomotion (mice; Arrb2+/− mice): continues to exacerbate; also recorded: potentiates | MK801-induced hyperlocomotion (mice; WT mice): significantly potentiates

COc1ccc2c(c1)CC[C@@H]1[C@@H]2CC[C@]2(C)[C@@H](NCCCCCCN3C(=O)C=CC3=O)CC[C@@H]12 [U73122]
DHPG-induced changes in calcium fluorescence (hippocampal neurons; pretreatment with 10 μM U73122, data not shown): completely blocked

C[C@@H]1C[C@@H]([C@H](O)CC2CC(=O)NC(=O)C2)C(=O)[C@@H](C)C1 [cycloheximide]
DHPG-LTD (25 μM, 5 min) magnitude (hippocampal slices [2]; Arrb2+/− slices, cycloheximide 60 μM, listed as CHX): unaffected; also recorded: no effect | DHPG-LTD (25 μM, 5 min) magnitude (hippocampal slices [2]; WT slices, cycloheximide 60 μM pretreatment): significantly diminished; also recorded: significantly attenuated
